Consider 23 molecules from patent US8609653B2, “Azaindole compounds and methods for treating HIV” (priority 2011, dated 2013).

As a reminder, the IC50 is the concentration needed to halve the response being measured.

Structures are written as SMILES.

In one experiment the test system is HIV. The experiment can be described thus: MT4 assay: antiviral HIV activity in MT-4 cells. Type of experiment: cell-based. To be noted: Human immunodeficiency virus 1, MT4, 96 h, read-out: HIV MT4 Assay IC50 (μM), HTLV-1 transformed cell line MT-4; read-out 96 hours later with cell titer glo; 10 point dose response. The gist of the method: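 Compounds tested in HTLV-1-transformed MT-4 cells for protection from HIV, with cytotoxicity run in parallel under the same conditions; CellTiter-Glo luminescence read 96 h later. IC50 from 10-point, 3–4-fold serial dilutions spanning >1000-fold, % inhibition relative to no-compound control, fitted by four-parameter logistic.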
Consider `Cc1nc2c(ccn2Cc2ccc(F)c(F)c2)c(C2=CCCCC2)c1[C@H](OC(C)(C)C)C(=O)O` [Example 120, (S)-2-(tert-butoxy)-2-(4-(cyclohex-1-en-1-yl)-1-(3,4-difluorobenzyl)-6-methyl-1H-pyrrolo[2,3-b]pyridin-5-yl)acetic acid], for which the IC50 amounted to 0.15 µM.
As for `Cc1ccc(-c2c(C(OC(C)(C)C)C(=O)O)c(C)nc3c2ccn3Cc2ccc(Cl)c(F)c2)cc1` (centres unmarked) [Example 16, 2-(tert-butoxy)-2-(1-(4-chloro-3-fluorobenzyl)-6-methyl-4-(p-tolyl)-1H-pyrrolo[2,3-b]pyridin-5-yl)acetic acid], the IC50 amounted to 0.36 µM.
As to `Cc1ccc(-c2c(C(OC(C)(C)C)C(=O)O)c(C)nc3c2ccn3Cc2ccc(F)cc2C)cc1` (centres unmarked) [Example 70, 2-(tert-butoxy)-2-(1-(4-fluoro-2-methylbenzyl)-6-methyl-4-(p-tolyl)-1H-pyrrolo[2,3-b]pyridin-5-yl)acetic acid], the IC50 turned out to be 0.04 µM.
On to `COc1ccc(Cn2ccc3c(-c4ccc5c(c4)CCCO5)c(C(OC(C)(C)C)C(=O)O)c(C)nc32)cc1F` (centres unmarked) [Example 45, 2-(tert-butoxy)-2-(4-(chroman-6-yl)-1-(3-fluoro-4-methoxybenzyl)-6-methyl-1H-pyrrolo[2,3-b]pyridin-5-yl)acetic acid], for which the IC50 is 0.055 µM.
On to `Cc1nc2c(ccn2[C@@H](C)c2ccc(F)cc2)c(-c2ccc3c(c2)CCCO3)c1[C@@H](OC(C)(C)C)C(=O)O` [Example 84, (R)-2-(tert-butoxy)-2-(4-(chroman-6-yl)-1-((S)-1-(4-fluorophenyl)ethyl)-6-methyl-1H-pyrrolo[2,3-b]pyridin-5-yl)acetic acid], for which the half-maximal inhibitory concentration (IC50) amounted to 0.124 µM.
Same read-out and setting: in the case of `Cc1nc2c(ccn2Cc2ccc(F)cc2)c(-c2ccc(Cl)cc2F)c1C(OC(C)(C)C)C(=O)O` (centres unmarked) [Example 90, 2-(tert-Butoxy)-2-(4-(4-chloro-2-fluorophenyl)-1-(4-fluorobenzyl)-6-methyl-1H-pyrrolo[2,3-b]pyridin-5-yl)acetic acid] it was 0.48 µM; in that of `Cc1nc2c(ccn2Cc2ccc(F)c(F)c2)c(C2=CCC(C)(C)CC2)c1[C@H](OC(C)(C)C)C(=O)O` [Example 114, (S)-2-(tert-butoxy)-2-(1-(3,4-difluorobenzyl)-4-(4,4-dimethylcyclohex-1-en-1-yl)-6-methyl-1H-pyrrolo[2,3-b]pyridin-5-yl)acetic acid], 0.08 µM.
With `Cc1nc2c(ccn2Cc2ccc(F)cc2)c(-c2ccccc2F)c1C(OC(C)(C)C)C(=O)O` (centres unmarked) [Example 91, 2-(tert-Butoxy)-2-(1-(4-fluorobenzyl)-4-(2-fluorophenyl)-6-methyl-1H-pyrrolo[2,3-b]pyridin-5-yl)acetic acid], the IC50 came out at 0.168 µM.
Regarding `Cc1nc2c(c(-c3ccc4c(c3C)CCCO4)c1C(OC(C)(C)C)C(=O)O)c1ccccc1n2C` (centres unmarked) [Example 127, 2-(tert-butoxy)-2-(2,9-dimethyl-4-(5-methylchroman-6-yl)-9H-pyrido[2,3-b]indol-3-yl)acetic acid], the IC50 was determined as 0.05 µM.
Still for that read-out and setting: for `Cc1ccc(-c2c(C(OC(C)(C)C)C(=O)O)c(C)nc3c2ccn3Cc2c(F)cc(F)cc2F)cc1` (centres unmarked) [Example 26, 2-(tert-butoxy)-2-(6-methyl-4-(p-tolyl)-1-(2,4,6-trifluorobenzyl)-1H-pyrrolo[2,3-b]pyridin-5-yl)acetic acid] the value was 0.12 µM.
As to `Cc1nc2c(ccn2Cc2ccc(F)c(F)c2)c(-c2cc3c(cc2F)OCCC3)c1[C@H](OC(C)(C)C)C(=O)O` (atropisomer, axis not shown; (M)) [Example 109, (2S)(M)-2-(tert-butoxy)-2-(1-(3,4-difluorobenzyl)-4-(7-fluorochroman-6-yl)-6-methyl-1H-pyrrolo[2,3-b]pyridin-5-yl)acetic acid], the IC50 was 0.015 µM.
Take `Cc1ccc(-c2c(C(OC(C)(C)C)C(=O)O)c(C)nc3c2ccn3Cc2ccc(Cl)cc2)cc1` (centres unmarked) [Example 77, 2-(tert-Butoxy)-2-(1-(4-chlorobenzyl)-6-methyl-4-(p-tolyl)-1H-pyrrolo[2,3-b]pyridin-5-yl)acetic acid]: the IC50 was 0.65 µM.
Turning to `Cc1nc2c(ccn2Cc2ccc(OC(F)(F)F)cc2)c(-c2ccc3c(c2)CCCO3)c1C(OC(C)(C)C)C(=O)O` (centres unmarked) [Example 64, 2-(tert-butoxy)-2-(4-(chroman-6-yl)-6-methyl-1-(4-(trifluoromethoxy)benzyl)-1H-pyrrolo[2,3-b]pyridin-5-yl)acetic acid], the IC50 turned out to be 0.68 µM.
On the same count and under the same terms, in the case of `Cc1nc2c(ccn2Cc2cccc(F)c2F)c(-c2ccc3c(c2C)CCCO3)c1[C@H](OC(C)(C)C)C(=O)O` (atropisomer, axis not shown; (M)) [Example 99, (2S)(M)-2-(tert-butoxy)-2-(1-(2,3-difluorobenzyl)-6-methyl-4-(5-methylchroman-6-yl)-1H-pyrrolo[2,3-b]pyridin-5-yl)acetic acid] it was 0.008 µM; in that of `Cc1nc2c(ccn2[C@@H](C)c2ccc(F)cc2)c(-c2ccc3c(c2)CCCO3)c1[C@H](OC(C)(C)C)C(=O)O` [Example 85, (S)-2-(tert-butoxy)-2-(4-(chroman-6-yl)-1-((S)-1-(4-fluorophenyl)ethyl)-6-methyl-1H-pyrrolo[2,3-b]pyridin-5-yl)acetic acid], 0.955 µM.
As to `Cc1nc2c(ccn2Cc2cccc(F)c2F)c(-c2ccc3c(c2)CCCO3)c1C(OC(C)(C)C)C(=O)O` (centres unmarked) [Example 34, 2-(tert-butoxy)-2-(4-(chroman-6-yl)-1-(2,3-difluorobenzyl)-6-methyl-1H-pyrrolo[2,3-b]pyridin-5-yl)acetic acid], the IC50 stood at 0.06 µM.
On the same count and under the same terms, in the case of `Cc1nc2c(ccn2Cc2cc(F)ccc2F)c(-c2ccc3c(c2)CCCO3)c1[C@H](OC(C)(C)C)C(=O)O` [Example 58, (S)-2-(tert-butoxy)-2-(4-(chroman-6-yl)-1-(2,5-difluorobenzyl)-6-methyl-1H-pyrrolo[2,3-b]pyridin-5-yl)acetic acid] it was 0.08 µM; in that of `Cc1nc2c(ccn2Cc2ccc(F)c(F)c2)c(-c2ccc3c(c2)CCCO3)c1[C@H](OC(C)(C)C)C(=O)O` [Example 29, (S)-2-(tert-butoxy)-2-(4-(chroman-6-yl)-1-(3,4-difluorobenzyl)-6-methyl-1H-pyrrolo[2,3-b]pyridin-5-yl)acetic acid], 0.024 µM.
Regarding `Cc1nc2c(ccn2Cc2ccc(F)c(F)c2)c(-c2ccc3c4c(ccnc24)CCO3)c1[C@H](OC(C)(C)C)C(=O)O` (atropisomer, axis not shown; (M)) [Example 124, (S)-2-(tert-butoxy)-2-(1-(3,4-difluorobenzyl)-4-((M)-2,3-dihydropyrano[4,3,2-de]quinolin-7-yl)-6-methyl-1H-pyrrolo[2,3-b]pyridin-5-yl)acetic acid], the IC50 was 0.035 µM.
On to `Cc1nc2c(ccn2Cc2cccc(Cl)c2F)c(-c2ccc3c(c2)CCCO3)c1C(OC(C)(C)C)C(=O)O` (centres unmarked) [Example 40, 2-(tert-butoxy)-2-(1-(3-chloro-2-fluorobenzyl)-4-(chroman-6-yl)-6-methyl-1H-pyrrolo[2,3-b]pyridin-5-yl)acetic acid], for which the IC50 worked out at 0.125 µM.
Still for that read-out and setting: for `Cc1ccc(-c2c(C(OC(C)(C)C)C(=O)O)c(C)nc3c2ccn3CCOCc2ccccc2)cc1` (centres unmarked) [Example 79, 2-(1-(2-(benzyloxy)ethyl)-6-methyl-4-(p-tolyl)-1H-pyrrolo[2,3-b]pyridin-5-yl)-2-(tert-butoxy)acetic acid] the value was 4.87 µM; for `Cc1nc2c(ccn2Cc2ccc(C(F)(F)F)o2)c(-c2ccc3c(c2)CCCO3)c1C(OC(C)(C)C)C(=O)O` (centres unmarked) [Example 41], 0.1 µM.

The experiment is the same for the next values; noted with them: read-out: HIV MT4 Assay IC50; HTLV-1 transformed cell line MT-4; read-out 96 hours later with cell titer glo; 10 point dose response.
Regarding `Cc1nc2c(ccn2C(C)c2ccc(F)c(F)c2)c(-c2ccc3c(c2)CCCO3)c1C(OC(C)(C)C)C(=O)O` (centres unmarked) [Example 72, 2-(tert-butoxy)-2-(4-(chroman-6-yl)-1-(1-(3,4-difluorophenyl)ethyl)-6-methyl-1H-pyrrolo[2,3-b]pyridin-5-yl)acetic acid], the IC50 is 0.19 µM.
